Assay results as given in ChEMBL document CHEMBL1765061, “Synthesis of rabdokunmin C analogues and their inhibitory effect on NF-κB activation” (Bioorg Med Chem, 2011).
Active and inactive are the calls of the source. The calls are words filed in the database; no cut-off is given here.

Experiments:
[1] = Cytotoxicity against mouse RAW264 cells after 2 hrs by WST reagent-based microplate reader analysis; type: cell-based; conditions: raw264, 2 h
HEK-293T = test: Cytotoxicity against human 293T cells assessed as cell viability by dual-luciferase reporter assay; type: cell-based
RAW264 = test: Inhibition of LPS-induced NO production in mouse RAW264 cells after 24 hrs; type: functional, cell-based
[2] = Inhibition of LPS-induced NF-kappaB activation in human 293T cells incubated for 30 mins followed by treated with LPS for 6 hrs by dual-luciferase reporter assay; type: cell-based; conditions: HEK-293T

## C=C1C(=O)[C@@]23[C@H](O)C[C@@H]4[C@@](C)(COC(C)=O)CCC[C@@]4(C)[C@@H]2C[C@H](OC(C)=O)[C@@H]1[C@H]3O
[1]
  Activity: Toxic
HEK-293T
  IC50: 2.92 µM
RAW264
  inhibition: Active
[2]
  IC50: 2 µM

## C=C1C(=O)[C@@]23[C@H](O)C[C@@H]4[C@@](C)(CO)CCC[C@@]4(C)[C@@H]2C=C[C@@H]1[C@H]3O
[1]
  Activity: Toxic
RAW264
  inhibition: Active

## C=C1C(=O)[C@@]23[C@@H]4OC(C)(C)O[C@@H]2C[C@@H]2[C@@](C)(CO)CCC[C@@]2(C)[C@@H]3C[C@H](O)[C@@H]14
[1]
  Activity: Toxic
RAW264
  inhibition: Active

## C=C1C(=O)[C@@]23[C@H](O)C[C@@H]4[C@@](C)(COC(=O)CCC)CCC[C@@]4(C)[C@@H]2C[C@H](OC(=O)CCC)[C@@H]1[C@H]3O
HEK-293T
  IC50: 2.3 µM
[2]
  IC50: 2.97 µM

## C=C1C(=O)[C@@]23[C@@H]4OC(C)(C)O[C@@H]2C[C@@H]2[C@@](C)(COC(C)=O)CCC[C@@]2(C)[C@@H]3C[C@H](OC(C)=O)[C@@H]14
[1]
  Activity: Toxic
HEK-293T
  IC50: 1.8 µM
RAW264
  inhibition: Active
[2]
  IC50: 2.01 µM

## C=C1C(=O)[C@@]23[C@H](O)C[C@H]4[C@@](C)(CCC[C@]4(C)C=O)[C@@H]2C[C@H](OC(C)=O)[C@@H]1[C@H]3O
[1]
  Activity: Toxic
RAW264
  inhibition: Active

## C=C1C(=O)[C@@]23[C@@H]4OC(C)(C)O[C@@H]2C[C@@H]2[C@@](C)(COC(=O)C(F)(F)F)CCC[C@@]2(C)[C@@H]3C[C@H](OC(=O)C(F)(F)F)[C@@H]14
[1]
  Activity: Toxic
RAW264
  inhibition: Active

## C=C1C(=O)[C@@]23[C@@H]4OC(C)(C)O[C@@H]2C[C@@H]2[C@@](C)(COC(C)=O)CCC[C@@]2(C)[C@@H]3C[C@H](O)[C@@H]14
[1]
  Activity: Toxic
RAW264
  inhibition: Active

## CC1=C(O)C(=O)C=C2C1=CC=C1[C@@]2(C)CC[C@@]2(C)[C@@H]3C[C@](C)(C(=O)O)CC[C@]3(C)CC[C@]12C [CELASTROL]
[1]
  Activity: Toxic
HEK-293T
  IC50: 0.67 µM
RAW264
  inhibition: Active
[2]
  IC50: 0.17 µM

## C=C1C(=O)[C@@]23[C@H](O)C[C@@H]4[C@@](C)(COC(C)=O)CCC[C@@]4(C)[C@@H]2C=C[C@@H]1[C@H]3O
[1]
  Activity: Toxic
HEK-293T
  IC50: > 5 µM
RAW264
  inhibition: Active
[2]
  IC50: 1.47 µM

## C=C1C(=O)[C@@]23[C@H](O)C[C@@H]4[C@@](C)(CO)CCC[C@@]4(C)[C@@H]2C[C@H](OC(C)=O)[C@@H]1[C@H]3O
[1]
  Activity: Toxic
RAW264
  inhibition: Active

## C[C@H]1C(=O)[C@@]23[C@H](O)C[C@@H]4[C@@](C)(CO)CCC[C@@]4(C)[C@@H]2C[C@H](O)[C@@H]1[C@H]3O
[1]
  Activity: Toxic
RAW264
  inhibition: Active

## C=C1C(=O)[C@@]23[C@H](O)C[C@@H]4[C@@](C)(CO)CCC[C@@]4(C)[C@@H]2C[C@H](OC(=O)CCC)[C@@H]1[C@H]3O
HEK-293T
  IC50: 1.91 µM
[2]
  IC50: 1.68 µM

## C=C1C(=O)[C@@]23[C@@H]4OC(C)(C)O[C@@H]2C[C@@H]2[C@@](C)(CO)CCC[C@@]2(C)[C@@H]3C=C[C@@H]14
[1]
  Activity: Toxic
RAW264
  inhibition: Active

## C=C1C(=O)[C@@]23[C@@H]4OC(C)(C)O[C@@H]2C[C@@H]2[C@@](C)(CO)CCC[C@@]2(C)[C@@H]3C[C@H](OC(C)=O)[C@@H]14
[1]
  Activity: Toxic
HEK-293T
  IC50: 2.39 µM
RAW264
  inhibition: Active
[2]
  IC50: 1.53 µM

## C=C1C(=O)[C@@]23[C@H](O)C[C@H]4[C@@](C)(CCC[C@]4(C)C(=O)O)[C@@H]2C[C@H](OC(C)=O)[C@@H]1[C@H]3O
[1]
  Activity: Toxic
RAW264
  inhibition: Active

## C=C1C(=O)[C@@]23[C@H](O)C[C@@H]4[C@@](C)(COC(=O)CC)CCC[C@@]4(C)[C@@H]2C[C@H](OC(=O)CC)[C@@H]1[C@H]3O
HEK-293T
  IC50: > 5 µM
[2]
  IC50: > 5 µM

## C=C1C(=O)[C@]23[C@H](O)[C@H]1CC[C@H]2[C@@]12CO[C@]3(O)[C@@H](O)[C@@H]1C(C)(C)CC[C@@H]2O [ORIDONIN]
HEK-293T
  IC50: > 5 µM
[2]
  IC50: 4.44 µM

## C=C1C(=O)[C@@]23[C@H](O)C[C@@H]4[C@@](C)(CO)CCC[C@@]4(C)[C@@H]2C[C@H](O)[C@@H]1[C@H]3O [RABDOKUNMIN C]
[1]
  Activity: Toxic
RAW264
  inhibition: Active

## C=C1C(=O)[C@@]23[C@H](O)C[C@@H]4[C@@](C)(COC(C)=O)CCC[C@@]4(C)[C@@H]2C[C@H](O)[C@@H]1[C@H]3O [ALBOPILOSIN A]
[1]
  Activity: Toxic
RAW264
  inhibition: Active
